Where two headings read alike, the source gives them in different places.
Columns and labels:
Na^+, K^+ -ATPase = details: reported in literature / other filings; cited from earlier work
[1] = reported in literature; cited from earlier work
[2] = molecular target: Na^+, K^+ -ATPase receptor; assay: displacement of the specific ^3 H-ouabain binding from the Na^+, K^+ -ATPase receptor; details: ^3 H-ouabain displacement, purified Na^+
Excerpt: a) displacement of the specific ^3 H-ouabain binding from the Na^+, K^+ -ATPase receptor purified according to Jorghensen (Jorghensen P., BBA, 1974, 356, 36) and Erdmann (Erdmann E. et al., Arzneim. Forsh., 1984, 34, 1314);

[3] = molecular target: T1, purified Na^+, K^+ -ATPase (Canis lupus familiaris, UniProt P50997); assay: inhibition of the activity of the purified Na^+, K^+ -ATPase (hydrolysis of ^32 P-ATP); type: biochemical
T1 construct: from tissue
Excerpt: To test the affinity for the receptor site of the Na^+, K^+ -ATPase and the inhibition of the activity of the enzyme, the following tests were used:
b) inhibition of the activity of the purified Na^+, K^+ -ATPase measured as % of hydrolysis of ^32 P-ATP in the presence and in the absence of the tested compound (Doucet A. et al., Am. J. Physiol., 1986, 251, F851)

[4] = tested on: spontaneous hypertensive rats (MHS); assay: effect of 5 week-treatment in spontaneous hypertensive rats (MHS) on the development of hypertension (SBP and HR, tail cuff method); type: in vivo, rat; details: 5 weeks, in Methocel 0.5% w/v; for SBP: controls 170 +/- 5.5; for HR: controls 378 +/- 12.0
Experimental: Systolic blood pressure (SBP) and hear rate (HR) were measured, by the tail cuff method, in young prehypertensive male rats (MHS or SHR) strains before the development of hypertension (4 weeks of age) for recording the basal values of SBP. Groups of 7 rats were formed and subdivided in control and treated groups.
The compound, suspended in Methocel 0.5% (w/v), was orally given daily for at least 5 weeks to the treated groups. The control group received only Methocel.
SBP and HR were measured weekly 6 and 24 hrs after treatment. After 5 weeks of treatment, when hypertension was fully developed in the control group (9 weeks of age), washout was started for at least one week, to verify whether the treatment maintained blood pressure low or reestablished the basal values.
(Takeda K. et al., Japan J. Pharmacol., 1979, 29, 171; Takeda K. et al. Japan J. Pharmacol., 1982, 32, 283; Richer C. et al. Eur. J. Pharmacol, 1978, 47,393).

Compound	inhibition of Na^+, K^+ -ATPase (Na^+, K^+ -ATPase)	positive inotropic activity [1]	Binding ^3 H-Ouab. Displacement (-log IC50) [2]	IC50 ([3]; hydrolysis of ^32 P-ATP, purified Na^+, K^+ -ATPase, read-out: Inhibitory Activity (-log IC50) (converted)) [µM]	SBP ([4]; 1 mg/Kg/os daily)	HR ([4]; 1 mg/Kg/os daily)	SBP ([4]; 10 mg/Kg/os daily)	HR ([4]; 10 mg/Kg/os daily)	IC50 [3] [µM]
C[C@]12CC[C@H](O)C[C@H]1CC[C@@H]1[C@@H]2CC[C@]2(C)C(=NNC(=N)N)CC[C@]12O [17-guanidinoimino-5β-androstane-3β,14β-diol]	weak inhibitors of Na^+, K^+ -ATPase	–	–	–	–	–	–	–	–
C[C@]12CC[C@H](O)C[C@H]1CC[C@@H]1[C@@H]2CC[C@]2(C)[C@@H](C=NNC(=N)N)CC[C@]12O [17β-guanidinoiminomethyl-5β-androstane-3,β,14β-diol]	weak inhibitors of Na^+, K^+ -ATPase	weak positive inotropic agents	–	–	–	–	–	–	–
CN(C)CCONC[C@H]1CC[C@]2(O)[C@@H]3CC[C@@H]4C[C@@H](O)CC[C@]4(C)[C@H]3CC[C@]12C [Comp. I-am, 17β-(2-Dimethylaminoethoxyamino)methyl-5β-androstane-3β,14β-diol]	–	–	6.1	50.1	152 +/- 5.3 mm Hg	365 +/- 10.1 beats/min.	149 +/- 4.5 mm Hg	370 +/- 14.7 beats/min.	–
CN(C)CCONC[C@H]1CC[C@]2(O)[C@@H]3CC[C@@H]4C[C@@H](OCCCN)CC[C@]4(C)[C@H]3CC[C@]12C [Comp. I-bb, 3β-(3-Aminopropoxy)-17β-(2-dimethylaminoethoxyamino)methyl-5β-androstane-14β-ol]	–	–	6.3	–	153 +/- 6.2 mm Hg	367 +/- 14.3 beats/min.	150 +/- 4.2 mm Hg	375 +/- 12.1 beats/min.	31.6
